Reference: PMC9090415, “Discovery of small molecule inhibitors of Plasmodium falciparum apicoplast DNA polymerase” (Journal of Enzyme Inhibition and Medicinal Chemistry, 2022)

Biological target: T1, bacteriophage T4 DNA polymerase (Enterobacteria phage T4, UniProt P04415)
T1 construct: made in house
T1 sequence (P04415 1-898): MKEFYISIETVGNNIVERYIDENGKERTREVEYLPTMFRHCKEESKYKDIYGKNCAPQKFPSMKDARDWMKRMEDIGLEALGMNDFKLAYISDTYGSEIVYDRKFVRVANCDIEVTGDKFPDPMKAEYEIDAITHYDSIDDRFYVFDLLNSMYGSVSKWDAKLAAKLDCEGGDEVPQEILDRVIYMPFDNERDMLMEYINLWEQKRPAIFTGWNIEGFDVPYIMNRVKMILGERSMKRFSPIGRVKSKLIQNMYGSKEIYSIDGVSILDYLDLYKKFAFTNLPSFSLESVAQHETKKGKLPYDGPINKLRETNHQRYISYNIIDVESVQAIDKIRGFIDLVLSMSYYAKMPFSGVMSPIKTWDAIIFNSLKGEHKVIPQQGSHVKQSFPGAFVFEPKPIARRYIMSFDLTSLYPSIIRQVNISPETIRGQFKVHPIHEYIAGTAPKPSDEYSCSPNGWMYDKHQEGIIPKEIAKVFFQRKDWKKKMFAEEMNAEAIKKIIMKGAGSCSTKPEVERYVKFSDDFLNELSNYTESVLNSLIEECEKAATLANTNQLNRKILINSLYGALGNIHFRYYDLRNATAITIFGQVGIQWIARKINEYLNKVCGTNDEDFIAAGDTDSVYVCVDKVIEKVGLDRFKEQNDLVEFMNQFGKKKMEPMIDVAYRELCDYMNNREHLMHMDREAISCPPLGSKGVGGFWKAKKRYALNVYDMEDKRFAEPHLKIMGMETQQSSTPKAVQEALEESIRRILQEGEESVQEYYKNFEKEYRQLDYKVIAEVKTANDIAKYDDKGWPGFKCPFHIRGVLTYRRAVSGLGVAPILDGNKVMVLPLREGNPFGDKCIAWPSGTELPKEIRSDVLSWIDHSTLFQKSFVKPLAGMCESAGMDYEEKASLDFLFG
Assay: Counter-screen against bacteriophage T4 DNA polymerase
Format: biochemical
Conditions: for % inhibition T4 10' 2.5 / % inhibition T4 10' 5 / % inhibition T4 10' 10 / % inhibition T4 10' 20 / % inhibition T4 10' 40 / % inhibition T4 10' 80: read at 10'; for % inhibition T4 10' 2.5 / % inhibition T4 70' 2.5 / % inhibition T4 130' 2.5 / % inhibition T4 40' 2.5 / % inhibition T4 90' 2.5 / % inhibition T4 180' 2.5: concentration 2.5; for % inhibition T4 10' 5 / % inhibition T4 70' 5 / % inhibition T4 130' 5 / % inhibition T4 40' 5 / % inhibition T4 90' 5 / % inhibition T4 180' 5: concentration 5; for % inhibition T4 10' 10 / % inhibition T4 70' 10 / % inhibition T4 130' 10 / % inhibition T4 40' 10 / % inhibition T4 90' 10 / % inhibition T4 180' 10: concentration 10; for % inhibition T4 10' 20 / % inhibition T4 70' 20 / % inhibition T4 130' 20 / % inhibition T4 40' 20 / % inhibition T4 90' 20 / % inhibition T4 180' 20: concentration 20; for % inhibition T4 10' 40 / % inhibition T4 70' 40 / % inhibition T4 130' 40 / % inhibition T4 40' 40 / % inhibition T4 90' 40 / % inhibition T4 180' 40: concentration 40; for % inhibition T4 10' 80 / % inhibition T4 70' 80 / % inhibition T4 130' 80 / % inhibition T4 40' 80 / % inhibition T4 90' 80 / % inhibition T4 180' 80: concentration 80; for % inhibition T4 70' 2.5 / % inhibition T4 70' 5 / % inhibition T4 70' 10 / % inhibition T4 70' 20 / % inhibition T4 70' 40 / % inhibition T4 70' 80: read at 70'; for % inhibition T4 130' 2.5 / % inhibition T4 130' 5 / % inhibition T4 130' 10 / % inhibition T4 130' 20 / % inhibition T4 130' 40 / % inhibition T4 130' 80: read at 130'; for % inhibition T4 40' 2.5 / % inhibition T4 40' 5 / % inhibition T4 40' 10 / % inhibition T4 40' 20 / % inhibition T4 40' 40 / % inhibition T4 40' 80: read at 40'; for % inhibition T4 90' 2.5 / % inhibition T4 90' 5 / % inhibition T4 90' 10 / % inhibition T4 90' 20 / % inhibition T4 90' 40 / % inhibition T4 90' 80: read at 90'; for % inhibition T4 180' 2.5 / % inhibition T4 180' 5 / % inhibition T4 180' 10 / % inhibition T4 180' 20 / % inhibition T4 180' 40 / % inhibition T4 180' 80: read at 180'
Protocol: Codon-optimized, exonuclease-deficient Pf-apPOL was overexpressed in E. coli BL21 (DE3) and purified as described. The protein was dialysed against two, 1-liter changes of 20 mM Tris-HCl (pH 8.0), 400 mM NaCl, and 20% glycerol. Plasmodium bergei and Babesia bovis apPOLs (Pb-apPOL and Bb-apPOL, respectively) were codon-optimized, expressed, and purified as for Pf-apPOL[15]. Bacteriophage T4 DNA polymerase was purified as described. The DNA oligonucleotides used to make the high-throughput substrate were obtained from Integrated DNA Technologies. Deoxynucleotides were purchased from Strategene. All other materials came from Fisher Scientific.
Each compound was tested in a dose-response format to determine IC50 values. […] T4 DNA polymerase can be produced in large quantities, and is in the same family (B-family) as the replicative human DNA polymerases (α, δ, and ε)[20].

Cn1nc(-c2nnc(-c3ccccc3F)o2)c2c1CCN(C(=O)c1ccccc1Cl)C2 [Molecule 34, Cn1nc(c2c1CCN(C2)C(=O)c1ccccc1Cl)c1nnc(o1)c1ccccc1F]
% inhibition T4 10' 2.5 (DRC-1): -0.603%
% inhibition T4 10' 5 (DRC-1): -0.853%
% inhibition T4 10' 10 (DRC-1): 3%
% inhibition T4 10' 20 (DRC-1): 1.06%
% inhibition T4 10' 40 (DRC-1): 1.22%
% inhibition T4 10' 80 (DRC-1): 31%
% inhibition T4 70' 2.5 (DRC-1): -2.57%
% inhibition T4 70' 5 (DRC-1): -4%
% inhibition T4 70' 10 (DRC-1): -2%
% inhibition T4 70' 20 (DRC-1): -2.24%
% inhibition T4 70' 40 (DRC-1): -0.925%
% inhibition T4 70' 80 (DRC-1): 28%
% inhibition T4 130' 2.5 (DRC-1): -4%
% inhibition T4 130' 5 (DRC-1): -4%
% inhibition T4 130' 10 (DRC-1): -2.33%
% inhibition T4 130' 20 (DRC-1): -2.59%
% inhibition T4 130' 40 (DRC-1): 0.922%
% inhibition T4 130' 80 (DRC-1): 22%
% inhibition T4 10' 2.5 (DRC-2): 0.487%
% inhibition T4 10' 5 (DRC-2): -4%
% inhibition T4 10' 10 (DRC-2): -3%
% inhibition T4 10' 20 (DRC-2): 1.3%
% inhibition T4 10' 40 (DRC-2): 3.35%
% inhibition T4 10' 80 (DRC-2): 11%
% inhibition T4 40' 2.5 (DRC-2): -0.945%
% inhibition T4 40' 5 (DRC-2): -3.75%
% inhibition T4 40' 10 (DRC-2): -3%
% inhibition T4 40' 20 (DRC-2): 0.863%
% inhibition T4 40' 40 (DRC-2): 3.24%
% inhibition T4 40' 80 (DRC-2): 12%
% inhibition T4 90' 2.5 (DRC-2): -0.872%
% inhibition T4 90' 5 (DRC-2): -3.55%
% inhibition T4 90' 10 (DRC-2): -2.12%
% inhibition T4 90' 20 (DRC-2): 0.601%
% inhibition T4 90' 40 (DRC-2): 1.62%
% inhibition T4 90' 80 (DRC-2): 10%
% inhibition T4 180' 2.5 (DRC-2): -4.68%
% inhibition T4 180' 5 (DRC-2): -7.58%
% inhibition T4 180' 10 (DRC-2): -5%
% inhibition T4 180' 20 (DRC-2): -3.78%
% inhibition T4 180' 40 (DRC-2): -2.41%
% inhibition T4 180' 80 (DRC-2): 6%

COc1ccc(/C=C/c2cc(C(=O)O)c3ccccc3n2)cc1 [Molecule 5, COc1ccc(cc1)/C=C/c1nc2ccccc2c(c1)C(=O)O]
% inhibition T4 10' 2.5 (DRC-1): 1.081%
% inhibition T4 10' 5 (DRC-1): 5.185%
% inhibition T4 10' 10 (DRC-1): 0.5818%
% inhibition T4 10' 20 (DRC-1): -3.901%
% inhibition T4 10' 40 (DRC-1): -6.063%
% inhibition T4 10' 80 (DRC-1): 5.54%
% inhibition T4 70' 2.5 (DRC-1): -11.7738%
% inhibition T4 70' 5 (DRC-1): -0.8035%
% inhibition T4 70' 10 (DRC-1): 5.827%
% inhibition T4 70' 20 (DRC-1): 2.436%
% inhibition T4 70' 40 (DRC-1): 2.364%
% inhibition T4 70' 80 (DRC-1): 3.646%
% inhibition T4 130' 2.5 (DRC-1): -10.2066%
% inhibition T4 130' 5 (DRC-1): -1.2832%
% inhibition T4 130' 10 (DRC-1): 4.495%
% inhibition T4 130' 20 (DRC-1): 3.3008%
% inhibition T4 130' 40 (DRC-1): 3.939%
% inhibition T4 130' 80 (DRC-1): 6.199%
% inhibition T4 10' 2.5 (DRC-2): 4.49%
% inhibition T4 10' 5 (DRC-2): 7%
% inhibition T4 10' 10 (DRC-2): 18%
% inhibition T4 10' 20 (DRC-2): 21%
% inhibition T4 10' 40 (DRC-2): 24%
% inhibition T4 10' 80 (DRC-2): 17%
% inhibition T4 40' 2.5 (DRC-2): 4%
% inhibition T4 40' 5 (DRC-2): 8%
% inhibition T4 40' 10 (DRC-2): 18%
% inhibition T4 40' 20 (DRC-2): 27%
% inhibition T4 40' 40 (DRC-2): 31%
% inhibition T4 40' 80 (DRC-2): 26%
% inhibition T4 90' 2.5 (DRC-2): 3%
% inhibition T4 90' 5 (DRC-2): 6.33%
% inhibition T4 90' 10 (DRC-2): 16%
% inhibition T4 90' 20 (DRC-2): 25%
% inhibition T4 90' 40 (DRC-2): 29%
% inhibition T4 90' 80 (DRC-2): 27%
% inhibition T4 180' 2.5 (DRC-2): -3.34%
% inhibition T4 180' 5 (DRC-2): 0.194%
% inhibition T4 180' 10 (DRC-2): 10%
% inhibition T4 180' 20 (DRC-2): 18%
% inhibition T4 180' 40 (DRC-2): 25%
% inhibition T4 180' 80 (DRC-2): 24%
